Results published in PubChem BioAssay AID1963973 (Molecular Pharmacology Branch, DTP, NCI, 2024).

System: 883617-216-R-J1-PDC tumor spheroids, viability
Assay: Anticancer human tumor 883617-216-R-J1-PDC patient-derived bladder carcinoma cell line growth inhibition [PI3K]
Settings: spheroids with HUVEC and MSC; for IC50: curve of first compound; for viability, T/C: stronger effect = lower value
Summary of the method: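 Viability of mixed-cell spheroids was determined after exposure to pairwise combinations, one partner being inavolisib, alpelisib, duvelisib or copanlisib. Highest tested concentration matched clinical Cmax where known and 10 microM where not, descending in half-log steps.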

[1] = second compound 0.0316 µM, first compound 0.0316 µM
[2] = second compound 0.0316 µM, first compound 0.1 µM
[3] = second compound 0.0316 µM, first compound 0.316 µM
[4] = second compound 0.0316 µM, first compound 1 µM
[5] = second compound 0.0316 µM, first compound 3.16 µM
[6] = second compound 0.0316 µM, first compound 10 µM
[7] = second compound 0.1 µM, first compound 0.0316 µM
[8] = second compound 0.1 µM, first compound 0.1 µM
[9] = second compound 0.1 µM, first compound 0.316 µM
[10] = second compound 0.1 µM, first compound 1 µM
[11] = second compound 0.1 µM, first compound 3.16 µM
[12] = second compound 0.1 µM, first compound 10 µM
[13] = second compound 0.316 µM, first compound 0.0316 µM
[14] = second compound 0.316 µM, first compound 0.1 µM
[15] = second compound 0.316 µM, first compound 0.316 µM
[16] = second compound 0.316 µM, first compound 1 µM
[17] = second compound 0.316 µM, first compound 3.16 µM
[18] = second compound 0.316 µM, first compound 10 µM
[19] = second compound 1 µM, first compound 0.0316 µM
[20] = second compound 1 µM, first compound 0.1 µM
[21] = second compound 1 µM, first compound 0.316 µM
[22] = second compound 1 µM, first compound 1 µM
[23] = second compound 1 µM, first compound 3.16 µM
[24] = second compound 1 µM, first compound 10 µM
[25] = second compound 3.16 µM, first compound 0.0316 µM
[26] = second compound 3.16 µM, first compound 0.1 µM
[27] = second compound 3.16 µM, first compound 0.316 µM
[28] = second compound 3.16 µM, first compound 1 µM
[29] = second compound 3.16 µM, first compound 3.16 µM
[30] = second compound 3.16 µM, first compound 10 µM
[31] = second compound 10 µM, first compound 0.0316 µM
[32] = second compound 10 µM, first compound 0.1 µM
[33] = second compound 10 µM, first compound 0.316 µM
[34] = second compound 10 µM, first compound 1 µM
[35] = second compound 10 µM, first compound 3.16 µM
[36] = second compound 10 µM, first compound 10 µM
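Note: spheroids exposed to agents for 7 days before the viability read.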

## C=CC(=O)N1CCN(c2nc(=O)n(-c3c(C)ccnc3C(C)C)c3nc(-c4c(O)cccc4F)c(F)cc23)C(C)C1 (stereo unspecified) + CC(Nc1ncnc2nc[nH]c12)c1cc2cccc(Cl)c2c(=O)n1-c1ccccc1
Second compound 0.0316 µM
  IC50: > 10 µM
Second compound 0.1 µM
  IC50: > 10 µM
Second compound 0.316 µM
  IC50: < 0.0316 µM
Second compound 1 µM
  IC50: 0.0739 µM
Second compound 3.16 µM
  IC50: < 0.0316 µM
Second compound 10 µM
  IC50: < 0.0316 µM
[1]
  viability, T/C: 59.4%
[2]
  viability, T/C: 41.1%
[3]
  viability, T/C: 49.5%
[4]
  viability, T/C: 55.3%
[5]
  viability, T/C: 59.9%
[6]
  viability, T/C: 64.2%
[7]
  viability, T/C: 60.9%
[8]
  viability, T/C: 46.9%
[9]
  viability, T/C: 48.4%
[10]
  viability, T/C: 57.9%
[11]
  viability, T/C: 63.4%
[12]
  viability, T/C: 62%
[13]
  viability, T/C: 55.9%
[14]
  viability, T/C: 43.4%
[15]
  viability, T/C: 40.8%
[16]
  viability, T/C: 59.1%
[17]
  viability, T/C: 48.7%
[18]
  viability, T/C: 54.8%
[19]
  viability, T/C: 63.3%
[20]
  viability, T/C: 45.2%
[21]
  viability, T/C: 43%
[22]
  viability, T/C: 45.7%
[23]
  viability, T/C: 37.1%
[24]
  viability, T/C: 45.6%
[25]
  viability, T/C: 43.2%
[26]
  viability, T/C: 36.2%
[27]
  viability, T/C: 27.2%
[28]
  viability, T/C: 37.5%
[29]
  viability, T/C: 37.6%
[30]
  viability, T/C: 45.4%
[31]
  viability, T/C: 26.1%
[32]
  viability, T/C: 20.1%
[33]
  viability, T/C: 19.6%
[34]
  viability, T/C: 21.9%
[35]
  viability, T/C: 28.8%
[36]
  viability, T/C: 31.7%

## CC(Cn1ccc(-c2ccc(C#N)c(Cl)c2)n1)NC(=O)c1cc(C(C)O)[nH]n1 (stereo unspecified) + CC(Nc1ncnc2nc[nH]c12)c1cc2cccc(Cl)c2c(=O)n1-c1ccccc1
Second compound 0.0316 µM
  IC50: > 10 µM
Second compound 0.1 µM
  IC50: > 10 µM
Second compound 0.316 µM
  IC50: > 10 µM
Second compound 1 µM
  IC50: > 10 µM
Second compound 3.16 µM
  IC50: > 10 µM
Second compound 10 µM
  IC50: < 0.0316 µM
[1]
  viability, T/C: 98.1%
[2]
  viability, T/C: 104%
[3]
  viability, T/C: 90.5%
[4]
  viability, T/C: 103%
[5]
  viability, T/C: 103%
[6]
  viability, T/C: 95.3%
[7]
  viability, T/C: 94.5%
[8]
  viability, T/C: 84.7%
[9]
  viability, T/C: 84.6%
[10]
  viability, T/C: 100%
[11]
  viability, T/C: 95.3%
[12]
  viability, T/C: 97%
[13]
  viability, T/C: 95.8%
[14]
  viability, T/C: 92.9%
[15]
  viability, T/C: 90.7%
[16]
  viability, T/C: 97.9%
[17]
  viability, T/C: 95.5%
[18]
  viability, T/C: 90.7%
[19]
  viability, T/C: 78.3%
[20]
  viability, T/C: 77.1%
[21]
  viability, T/C: 78.3%
[22]
  viability, T/C: 86.9%
[23]
  viability, T/C: 90.8%
[24]
  viability, T/C: 76.8%
[25]
  viability, T/C: 76.7%
[26]
  viability, T/C: 70.9%
[27]
  viability, T/C: 61.2%
[28]
  viability, T/C: 61%
[29]
  viability, T/C: 68.1%
[30]
  viability, T/C: 74.2%
[31]
  viability, T/C: 52.9%
[32]
  viability, T/C: 43.1%
[33]
  viability, T/C: 44.6%
[34]
  viability, T/C: 51.4%
[35]
  viability, T/C: 43.7%
[36]
  viability, T/C: 50%

## Cn1nccc1Nc1nccc(-c2ccn(C(CO)c3ccc(Cl)c(F)c3)c(=O)c2)n1 (stereo unspecified) + CC(Nc1ncnc2nc[nH]c12)c1cc2cccc(Cl)c2c(=O)n1-c1ccccc1
Second compound 0.0316 µM
  IC50: 7.98 µM
Second compound 0.1 µM
  IC50: 5.28 µM
Second compound 0.316 µM
  IC50: 7.48 µM
Second compound 1 µM
  IC50: 4.18 µM
Second compound 3.16 µM
  IC50: 0.764 µM
Second compound 10 µM
  IC50: < 0.0316 µM
[1]
  viability, T/C: 100%
[2]
  viability, T/C: 90.3%
[3]
  viability, T/C: 72.5%
[4]
  viability, T/C: 67.4%
[5]
  viability, T/C: 66.5%
[6]
  viability, T/C: 43.5%
[7]
  viability, T/C: 87.3%
[8]
  viability, T/C: 86.8%
[9]
  viability, T/C: 70.1%
[10]
  viability, T/C: 62.6%
[11]
  viability, T/C: 65.3%
[12]
  viability, T/C: 38.6%
[13]
  viability, T/C: 88.4%
[14]
  viability, T/C: 71.2%
[15]
  viability, T/C: 71.2%
[16]
  viability, T/C: 66.8%
[17]
  viability, T/C: 64%
[18]
  viability, T/C: 44%
[19]
  viability, T/C: 77.9%
[20]
  viability, T/C: 74.6%
[21]
  viability, T/C: 64.5%
[22]
  viability, T/C: 61%
[23]
  viability, T/C: 52%
[24]
  viability, T/C: 43.6%
[25]
  viability, T/C: 63.7%
[26]
  viability, T/C: 69.5%
[27]
  viability, T/C: 50%
[28]
  viability, T/C: 50.3%
[29]
  viability, T/C: 37.2%
[30]
  viability, T/C: 24.9%
[31]
  viability, T/C: 46.7%
[32]
  viability, T/C: 40.9%
[33]
  viability, T/C: 35.7%
[34]
  viability, T/C: 31.4%
[35]
  viability, T/C: 29.5%
[36]
  viability, T/C: 22.2%
